Drawing on patent publication US12331040B2 (Karyopharm Therapeutics Inc., priority 2013, dated 2025), this text covers IC50 for 20 compounds.

Test in all cases: MTT cell proliferation assay
Holding throughout (format): cell-based
A general note: Tetrazolium assays rely on reduction of a dye to a coloured formazan, in cell work by metabolically active cells.

For one test, the system named is Z138 cells. The settings on record: Homo sapiens, Z-138, Z138 cells, approximately 64-72 hours incubation. In outline: (§1)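 Cytotoxicity was measured by MTT: OD490 of the solubilized formazan after roughly 4 h with MTT reagent, reported as mean percent inhibition relative to the negative control. Test compounds covered eight concentrations between 1 nM and 30 μM, added to 5,000–10,000 cells per well that had attached overnight.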

The next test has as its system 3T3 cells. The settings on record: Mus musculus, NIH3T3, approximately 64-72 hours incubation. In outline: as §1
For a further test, the system named is MS751 cells. The settings on record: Homo sapiens, MS751, MS751 cells, approximately 64-72 hours incubation. In outline:
as §1

Setting [1] is: read-out: MTT Assay IC50 MS-751.
The mark [2] stands for this setting: read-out: MTT Assay IC50, Z-138.
The mark [3] stands for this setting: read-out: MTT Assay IC50, MS-751.

Where two headings read alike, the source gives them in different places.

By IC50 is commonly meant the concentration that inhibits the measured activity by half. On to `CC1(F)CCN(C(=O)c2ccc(-c3cc(C(F)(F)F)c4oc(CNC(=O)/C=C/c5ccc(N)nc5)cc4c3)cc2)CC1` [Compound 604, (E)-3-(6-aminopyridin-3-yl)-N-((5-(4-(4-fluoro-4-methylpiperidine-1-carbonyl)phenyl)-7-(trifluoromethyl)benzofuran-2-yl)methyl)acrylamide], for which the IC50 was 0.1 to 5 µM in the test with Z138 cells (read-out: MTT Assay IC50 Z-138), greater than 10 µM with 3T3 cells (read-out: MTT Assay IC50 3T3) and 0.1 to 5 µM in the test on MS751 cells (setting [1]).
Consider `Nc1ccc(/C=C/C(=O)NCc2cc3cc(-c4ccc(C(=O)N5CCC(C(F)(F)F)CC5)cc4)cc(C(F)(F)F)c3o2)cn1` [Compound 605, (E)-3-(6-aminopyridin-3-yl)-N-((7-(trifluoromethyl)-5-(4-(4-(trifluoromethyl)piperidine-1-carbonyl)phenyl)benzofuran-2-yl)methyl)acrylamide], for which the results for the concentration for half-maximal inhibition (IC50) in the test with Z138 cells (read-out: MTT Assay IC50 Z-138), in the test on 3T3 cells (read-out: MTT Assay IC50 3T3) and in the test with MS751 cells (setting [1]) were 0.1 to 5 µM, greater than 10 µM and 0.1 to 5 µM, respectively.
Regarding `Nc1ccc(/C=C/C(=O)NCc2cc3cc(-c4ccc(C(=O)N5CCC(F)CC5)cc4)cc(Cl)c3o2)cn1` [Compound 598, (E)-3-(6-aminopyridin-3-yl)-N-((7-chloro-5-(4-(4-fluoropiperidine-1-carbonyl)phenyl)benzofuran-2-yl)methyl)acrylamide], the IC50 in the test with Z138 cells (read-out: MTT Assay IC50 Z-138) is 0.1 to 5 µM; in the test with 3T3 cells (read-out: MTT Assay IC50 3T3), greater than 10 µM; in the test on MS751 cells (setting [1]), 0.1 to 5 µM.
`Nc1ccc(/C=C/C(=O)NCc2cc3cc(-c4ccc(C(=O)N5CCC(O)(C(F)(F)F)CC5)cn4)cc(C(F)(F)F)c3o2)cn1` [Compound 616, (E)-3-(6-aminopyridin-3-yl)-N-((5-(5-(4-hydroxy-4-(trifluoromethyl)piperidine-1-carbonyl)pyridin-2-yl)-7-(trifluoromethyl)benzofuran-2-yl)methyl)acrylamide]: the results for the IC50 in the test with Z138 cells (read-out: MTT Assay IC50 Z-138), with 3T3 cells (read-out: MTT Assay IC50 3T3) and with MS751 cells (setting [1]) were less than 0.1 µM, greater than 10 µM and less than 0.1 µM, respectively.
For the compound `Nc1ccc(/C=C/C(=O)NCc2cc3cc(-c4cncc(C(=O)N5CCOCC5)c4)cc(Cl)c3o2)cn1` [Compound 534, (E)-3-(6-aminopyridin-3-yl)-N-((7-chloro-5-(5-(morpholine-4-carbonyl)pyridin-3-yl)benzofuran-2-yl)methyl)acrylamide], the figures for the IC50 in the test on Z138 cells (read-out: MTT Assay IC50 Z-138), in the test with 3T3 cells (read-out: MTT Assay IC50 3T3) and in the test with MS751 cells (setting [1]) were 0.1 to 5 µM, greater than 10 µM and 0.1 to 5 µM, respectively.
Consider `Nc1ccc(/C=C/C(=O)NCc2cc3cc(-c4ccc(C(=O)N5CCC(F)(F)CC5)cc4F)cc(-c4ccc(F)cc4F)c3o2)cn1` [Compound 753, (E)-3-(6-aminopyridin-3-yl)-N-((7-(2,4-difluorophenyl)-5-(4-(4,4-difluoropiperidine-1-carbonyl)-2-fluorophenyl)benzofuran-2-yl)methyl)acrylamide], for which the concentration for half-maximal inhibition (IC50) in the test on Z138 cells (setting [2]) is less than 0.1 µM; in the test with 3T3 cells (read-out: MTT Assay IC50, 3T3) it was 0.1 to 5 µM; with MS751 cells (setting [3]), less than 0.1 µM.
On to `Nc1ccc(/C=C/C(=O)NCc2cc3cc(-c4ccc(C(=O)N5CCCCC5)cc4)cc(Cl)c3o2)cn1` [Compound 600, (E)-3-(6-aminopyridin-3-yl)-N-((7-chloro-5-(4-(piperidine-1-carbonyl)phenyl)benzofuran-2-yl)methyl)acrylamide], for which the IC50 was 0.1 to 5 µM in the test with Z138 cells (read-out: MTT Assay IC50 Z-138), greater than 10 µM with 3T3 cells (read-out: MTT Assay IC50 3T3) and 5 to 10 µM in the test on MS751 cells (setting [1]).
`Nc1ccc(/C=C/C(=O)NCc2cc3cc(-c4ccc(C(=O)N5CC6(CCO6)C5)cn4)cc(C(F)(F)F)c3o2)cn1` [Compound 634, (E)-N-((5-(5-(1-oxa-6-azaspiro[3.3]heptane-6-carbonyl)pyridin-2-yl)-7-(trifluoromethyl)benzofuran-2-yl)methyl)-3-(6-aminopyridin-3-yl)acrylamide]: the IC50 in the test with Z138 cells (read-out: MTT Assay IC50 Z-138) is 0.1 to 5 µM; with 3T3 cells (read-out: MTT Assay IC50 3T3), greater than 10 µM; with MS751 cells (setting [1]) it was 0.1 to 5 µM.
Regarding `Nc1ccc(/C=C/C(=O)NCc2cc3ccc(-c4ccc(C(=O)N5CCC(F)(F)CC5)cn4)cc3o2)cn1` [Compound 718, (E)-3-(6-Aminopyridin-3-yl)-N-((6-(5-(4,4-difluoropiperidine-1-carbonyl)pyridin-2-yl)benzofuran-2-yl)methyl)acrylamide], the IC50 with Z138 cells (setting [2]) is 0.1 to 5 µM; in the test on 3T3 cells (read-out: MTT Assay IC50, 3T3) it was greater than 10 µM; in the test with MS751 cells (setting [3]), 0.1 to 5 µM.
With `O=C(/C=C/c1cccnc1)NCc1cc2cc(-c3ccc(S(=O)(=O)N4CCC(F)(F)CC4)cc3)cc(C(F)(F)F)c2o1` [Compound 680, (E)-N-((5-(4-((4,4-difluoropiperidin-1-yl)sulfonyl)phenyl)-7-(trifluoromethyl)benzofuran-2-yl)methyl)-3-(pyridin-3-yl)acrylamide], the IC50 in the test on Z138 cells (setting [2]) was 0.1 to 5 µM; in the test on 3T3 cells (read-out: MTT Assay IC50, 3T3), greater than 10 µM; in the test with MS751 cells (setting [3]), 0.1 to 5 µM.
For `O=C(/C=C/c1cccnc1)NCc1cc2cc(-c3ccc(C(=O)N4CCC(F)(F)CC4)cc3)cc(C(F)(F)F)c2o1` [Compound 682, (E)-N-((5-(4-(4,4-difluoropiperidine-1-carbonyl)phenyl)-7-(trifluoromethyl)benzofuran-2-yl)methyl)-3-(pyridin-3-yl)acrylamide], the IC50 with Z138 cells (setting [2]) lay in the range of 0.1 to 5 µM; with 3T3 cells (read-out: MTT Assay IC50, 3T3) it was 0.1 to 5 µM; in the test with MS751 cells (setting [3]), 0.1 to 5 µM.
In the case of `Nc1ccc(/C=C/C(=O)NCc2cc3cc(-c4ccc(C(=O)N5CCOCC5)cn4)cc(-c4ccc(F)cc4)c3o2)cn1` [Compound 568, (E)-3-(6-aminopyridin-3-yl)-N-((7-(4-fluorophenyl)-5-(5-(morpholine-4-carbonyl)pyridin-2-yl)benzofuran-2-yl)methyl)acrylamide], the IC50 in the test with Z138 cells (read-out: MTT Assay IC50 Z-138) was less than 0.1 µM; in the test on 3T3 cells (read-out: MTT Assay IC50 3T3) it was 0.1 to 5 µM; with MS751 cells (setting [1]) it was less than 0.1 µM.
Consider `CC1(C)CN(C(=O)c2ccc(-c3cc(C(F)(F)F)c4oc(CNC(=O)/C=C/c5ccc(N)nc5)cc4c3)cc2)CCN1` [Compound 572, (E)-3-(6-aminopyridin-3-yl)-N-((5-(4-(3,3-dimethylpiperazine-1-carbonyl)phenyl)-7-(trifluoromethyl)benzofuran-2-yl)methyl)acrylamide], for which the concentration for half-maximal inhibition (IC50) in the test with Z138 cells (read-out: MTT Assay IC50 Z-138) was less than 0.1 µM; with 3T3 cells (read-out: MTT Assay IC50 3T3) it was 0.1 to 5 µM; in the test with MS751 cells (setting [1]), less than 0.1 µM.
As for `Nc1ccc(/C=C/C(=O)NCc2cc3cc(-c4ccc(C(=O)N5CCC(F)(F)CC5)cc4F)cc(-c4ccc(Cl)cc4)c3o2)cn1` [Compound 750, (E)-3-(6-aminopyridin-3-yl)-N-((7-(4-chlorophenyl)-5-(4-(4,4-difluoropiperidine-1-carbonyl)-2-fluorophenyl)benzofuran-2-yl)methyl)acrylamide], the IC50 with Z138 cells (setting [2]) was 0.1 to 5 µM; with 3T3 cells (read-out: MTT Assay IC50, 3T3), greater than 10 µM; with MS751 cells (setting [3]) it was 0.1 to 5 µM.
In the case of `Nc1ccc(/C=C/C(=O)NCc2cc3cc(-c4ccc(C(=O)N5CCC(F)(F)CC5)cc4)cc(-c4cc(F)ccc4F)c3o2)cn1` [Compound 740, (E)-3-(6-aminopyridin-3-yl)-N-((7-(2,5-difluorophenyl)-5-(4-(4,4-difluoropiperidine-1-carbonyl)phenyl)benzofuran-2-yl)methyl)acrylamide], the IC50 in the test on Z138 cells (setting [2]) is less than 0.1 µM; with 3T3 cells (read-out: MTT Assay IC50, 3T3), 0.1 to 5 µM; in the test on MS751 cells (setting [3]), less than 0.1 µM.
Take `CC1(C)CN(C(=O)c2ccc(-c3cc(C(F)(F)F)c4oc(CNC(=O)/C=C/c5ccc(N)nc5)cc4c3)cc2)C1` [Compound 526, (E)-3-(6-aminopyridin-3-yl)-N-((5-(4-(3,3-dimethylazetidine-1-carbonyl)phenyl)-7-(trifluoromethyl)benzofuran-2-yl)methyl)acrylamide]: the half-maximal inhibitory concentration (IC50) is 0.1 to 5 µM with Z138 cells (read-out: MTT Assay IC50 Z-138), greater than 10 µM with 3T3 cells (read-out: MTT Assay IC50 3T3) and 0.1 to 5 µM with MS751 cells (setting [1]).
Regarding `Nc1ccc(/C=C/C(=O)NCc2cc3cc(-c4ncc(C(=O)N5CCC(F)(F)C5)cn4)cc(C(F)(F)F)c3o2)cn1` [Compound 653, (E)-3-(6-aminopyridin-3-yl)-N-((5-(5-(3,3-difluoropyrrolidine-1-carbonyl)pyrimidin-2-yl)-7-(trifluoromethyl)benzofuran-2-yl)methyl)acrylamide], the figures for the IC50 in the test with Z138 cells (read-out: MTT Assay IC50 Z-138), in the test with 3T3 cells (read-out: MTT Assay IC50 3T3) and with MS751 cells (setting [1]) were 0.1 to 5 µM, greater than 10 µM and 0.1 to 5 µM, respectively.
`Nc1ccc(/C=C/C(=O)NCc2cc3cc(-c4ccc(C(=O)N5CCC(F)(F)CC5)cc4)cc(-c4ccc(F)c(Cl)c4)c3o2)cn1` [Compound 711, (E)-3-(6-aminopyridin-3-yl)-N-((7-(3-chloro-4-fluorophenyl)-5-(4-(4,4-difluoropiperidine-1-carbonyl)phenyl)benzofuran-2-yl)methyl)acrylamide]: the 50% inhibitory concentration (IC50) in the test with Z138 cells (setting [2]) was less than 0.1 µM; in the test on 3T3 cells (read-out: MTT Assay IC50, 3T3) it was 0.1 to 5 µM; in the test with MS751 cells (setting [3]), less than 0.1 µM.
For `Nc1ccc(/C=C/C(=O)NCc2cc3cc(-c4ccc(C(=O)N5CC(F)(F)C5)cc4)cc(Cl)c3o2)cn1` [Compound 508, (E)-3-(6-aminopyridin-3-yl)-N-((7-chloro-5-(4-(3,3-difluoroazetidine-1-carbonyl)phenyl)benzofuran-2-yl)methyl)acrylamide], the IC50 was 0.1 to 5 µM in the test on Z138 cells (read-out: MTT Assay IC50 Z-138), greater than 10 µM in the test with 3T3 cells (read-out: MTT Assay IC50 3T3) and 0.1 to 5 µM in the test on MS751 cells (setting [1]).
Turning to `Nc1ccc(/C=C/C(=O)NCc2cc3cc(-c4ccc(C(=O)N5CCC(F)(F)CC5)cc4F)cc(-c4ccc(F)cc4)c3o2)cn1` [Compound 751, (E)-3-(6-aminopyridin-3-yl)-N-((5-(4-(4,4-difluoropiperidine-1-carbonyl)-2-fluorophenyl)-7-(4-fluorophenyl)benzofuran-2-yl)methyl)acrylamide], the IC50 in the test with Z138 cells (setting [2]) is less than 0.1 µM; in the test with 3T3 cells (read-out: MTT Assay IC50, 3T3), 0.1 to 5 µM; in the test on MS751 cells (setting [3]), less than 0.1 µM.
